Measurements taken from patent US4404230A, “4-Hydroxy-1,2-Benzisothiazol-3(2H)-one-1,1-dioxides and salts thereof” (priority 1980, dated 1983).

Columns and labels:
[1] = system: Trychophyton mentagrophytes ATCC 9129; assay: Fungistasis, agar diffusion test; type: cell-based; details: 16,000 μg/ml
Description: (§1) Substance B was tested with regard to its bacteria- and fungi-inhibiting effect by the serial dilution test and agar diffusion test.

Aspergillus niger = assay: Fungistasis, agar diffusion test; type: cell-based; details: 16,000 μg/ml
Description: as §1

[2] = system: Candida albicans ATCC 10231; assay: Fungistasis, agar diffusion test; type: cell-based; details: 16,000 μg/ml
Description: as §1

mice [3] = assay: Effect on motility of mice (sedative and stimulating effect); type: in vivo, Chbb:NMRI-mice; details: 200 mg/kg p.o.; for % motility: vs control
Description: Eight female Chbb:NMRI-mice (SPF) having a body weight from 20 to 26 g were tested in light beam cages after oral administration of the test compound in a suspension of 1% tylose. 30, 90 and 150 minutes after administration of the test compound, their motility was measured for 5 minutes each; a control group received only the solvent (tylose:carboxymethyl cellulose). The change in motility, given in percent with regard to that of the control group, was determined.

beagles = assay: Test for subacute toxicity in the dog; details: in vivo
Description: The test was carried out in each 3 male and 3 female beagles. Over a period of 5 weeks 750 mg/kg of substance B were administered orally.
After the test period of 5 weeks the animals were killed and the same organs as above were taken for histological examination.

[4] = system: Escherichia coli ATCC 9637; assay: Bacteriostasis, agar diffusion test; type: cell-based; details: 16,000 μg/ml
Description: as §1

[5] = system: Pseudomonas aeruginosa Hbg.; assay: Bacteriostasis, agar diffusion test; type: cell-based; details: 16,000 μg/ml
Description: as §1

Streptococcus Aronson = assay: Bacteriostasis, agar diffusion test; type: cell-based; details: 16,000 μg/ml
Description: as §1

[6] = system: Serratia marcescens ATCC 13880; assay: Bacteriostasis, agar diffusion test; type: cell-based; details: 16,000 μg/ml
Description: as §1

[7] = system: Staphylococcus aureus SG 511; assay: Bacteriostasis, agar diffusion test; type: cell-based; details: 16,000 μg/ml
Description: as §1

Sc. pyogenes ATCC 8688 = assay: Bacteriostasis, agar diffusion test; type: cell-based; details: 16,000 μg/ml
Description: as §1

Salmonella typhimurium = assay: Prior serial dilution test for inhibition of microorganism growth (AMES-system); type: cell-based; details: highest dosage used
Description: (§2) Compound B was tested at concentrations of 0.25, 2.5, 5 and 10 mg/plate.

rats [8] = assay: Ulcerogenic effect in rats; type: in vivo, Chbb:THOM-rats; details: 200 mg/kg p.o.
Description: 200 mg/kg of substance B in 1% tylose suspension were administered perorally to 10 male and female (1:1) Chbb:THOM-rats (SPF) having an approximate body weight of 200 gm. A control group received only the suspension agent. After 4 hours all animals were killed, the stomach was dissected and inspected with regard to lesions of the mucosa.

rats [9] = assay: Effect on diuresis in water-loaded rats; type: in vivo, Chbb:THOM-rats; details: for Cl^- excretion / K^+ excretion / Na^+ excretion / Urine: 5 hours
Description: Male Chbb:THOM-rats (SPF) having a body weight of 180-210 gm were kept away from food with free access to water for 24 hours before the test. Substance B was administered orally at dosages of 50, 100 and 200 mg/kg in aqua dist. solution of the rate of 1 ml/100 gm body weight to 6 animals/dose. Additionally, 4 ml water/100 gm body weight were administered orally. A control group received only the solvent and the same additional amount of water.
Five hours after treatment, the excreted volume of urine of each group was measured, and the concentration of Na^+, K^+ and Cl^- was determined photometrically and complexometrically.

mice [10] = assay: Effect on reserpine-hypothermia in mice; type: in vivo, Chbb:NMRI-mice
Description: In analogy to Askew [Life Sci. 2, 275, (1963)] hypothermia was induced by s.c. administration of 3 mg/kg of reserpine in male Chbb:NMRI-mice (SPF) having a body weight of 20-26 gm. […] A control group received only the solvent p.o.; 1 to 4 hours after administration the temperature was measured every hour. The values given in the table are at average temperature values ±SD.

[11] = Determination of water-solubility; type: physicochemical
[12] = system: Salmonella typhimurium TA 1535; assay: Test for mutagenic effects (AMES-system); type: cell-based
Description: (§3) Compound B was tested according to the AMES-system [Mutation Research 31, 347-364 (1975)] for mutagenic properties. In order to show the whole spectrum of induced molecular DNA-damage (base substitutions, frame-shift mutations, deletions) the auxotrophic bacterial strains Salmonella typhimurium TA 98, TA 100, TA 1535, TA 1537 and TA 1538 were used as genetic indicators.
(§4) The tests for all microorganisms were carried out such that the effect of the test compound on a microsomal enzyme system together with the corresponding co-factors could be tested, and furthermore to determine the effect on enzyme induction. The tests were performed without an activating system and in the presence of an activating system. For the in-vitro-activation S-9 supernatants (fractions of the endoplasmatic reticulum) of normal, i.e. not pretreated rats and of rats induced by aroclor 1254 (500 mg/kg) wer used. For the S-9 induced fraction, 3 different concentrations were tested.
as §2

[13] = system: Salmonella typhimurium TA 98; assay: Test for mutagenic effects (AMES-system); type: cell-based
Description: as §3, §4, §2

[14] = system: Salmonella typhimurium TA 1537; assay: Test for mutagenic effects (AMES-system); type: cell-based
Description: as §3, §4, §2

[15] = system: Salmonella typhimurium TA 100; assay: Test for mutagenic effects (AMES-system); type: cell-based
Description: as §3, §4, §2

[16] = system: Salmonella typhimurium TA 1538; assay: Test for mutagenic effects (AMES-system); type: cell-based
Description: as §3, §4, §2

[17] = 0.25, 2.5, 5 and 10 mg/plate, with and without activating system

## O=C1NS(=O)(=O)c2cccc(O)c21.[Na]
[1]
  inhibiting effect: did not show any inhibiting effect
Aspergillus niger
  inhibiting effect: did not show any inhibiting effect
[2]
  inhibiting effect: did not show any inhibiting effect
Mice [3]
  effect on motility of mice (in words): did not affect the motility of mice
Mice [3]; 30-35 min
  Motility of mice: 92 ± 21 contacts/animal
  % motility: 102%
Mice [3]; 90-95 min
  Motility of mice: 84 ± 28 contacts/animal
  % motility: 101%
Mice [3]; 150-155 min
  Motility of mice: 49 ± 17 contacts/animal
  % motility: 72%
beagles
  behavior: did not show any abnormal behavior
  histological examination of organs: No changes could be observed
  spontaneous deaths: Spontaneous deaths could not be observed
[4]
  inhibiting effect: did not show any inhibiting effect
[5]
  inhibiting effect: did not show any inhibiting effect
Streptococcus Aronson
  inhibiting effect: did not show any inhibiting effect
[6]
  inhibiting effect: did not show any inhibiting effect
[7]
  inhibiting effect: did not show any inhibiting effect
Sc. pyogenes ATCC 8688
  inhibiting effect: did not show any inhibiting effect
Salmonella typhimurium
  inhibition of the microorganism growth: did not show an inhibition of the microorganism growth
Rats [8]
  ulcerogenic effect (in words): does not show any ulcerogenic effect in rats
Rats [8]; 4 hours, N = 10
  Animals having stomach lesions: 0
Rats [9]; 50 mg/kg p.o.
  Cl^- excretion: 616.4 Microval/kg
  K^+ excretion: 456.6 Microval/kg
  Na^+ excretion: 456.6 Microval/kg
  Urine: 45.7 mL/kg
Rats [9]; 100 mg/kg p.o.
  Cl^- excretion: 325.5 Microval/kg
  K^+ excretion: 321.5 Microval/kg
  Na^+ excretion: 401.9 Microval/kg
  Urine: 40.2 mL/kg
Rats [9]; 200 mg/kg p.o.
  Cl^- excretion: 535.7 Microval/kg
  K^+ excretion: 425.1 Microval/kg
  Na^+ excretion: 467.6 Microval/kg
  Urine: 42.5 mL/kg
Rats [9]; 50, 100 and 200 mg/kg p.o.
  effect on diuresis (in words): does not show any effect on diuresis in rats
Mice [10]; 100 mg/kg p.o., 1 hour
  body temperature: 26.0 °C
Mice [10]; 100 mg/kg p.o., 2 hours
  body temperature: 26.7 °C
Mice [10]; 100 mg/kg p.o., 3 hours
  body temperature: 26.6 °C
Mice [10]; 100 mg/kg p.o., 4 hours
  body temperature: 26.8 °C
Mice [10]; 400 mg/kg p.o. [sic], 1 hour
  body temperature: 24.0 °C
Mice [10]; 400 mg/kg p.o. [sic], 2 hours
  body temperature: 24.7 °C
Mice [10]; 400 mg/kg p.o. [sic], 3 hours
  body temperature: 25.3 °C
Mice [10]; 400 mg/kg p.o. [sic], 4 hours
  body temperature: 25.9 °C
Mice [10]; 40 and 100 mg/kg p.o.
  effect on reserpine-induced hypothermia (in words): does not show an effect on hypothermia in mice induced by reserpine
[11]
  solubility: > 1 gm/10 ml of water
  water-solubility (in words): easily soluble in water
[12]; [17]
  spontaneous mutation rate: did not lead to an increase in the spontaneous mutation rate
[12]; TA 1535
  base substitutions: does not induce base substitutions
[13]; [17]
  spontaneous mutation rate: did not lead to an increase in the spontaneous mutation rate
[13]; TA 98
  frame-shift mutations: does not induce base substitutions (S. typhimurium TA 1535, TA 100) or frame-shift mutations
[14]; [17]
  spontaneous mutation rate: did not lead to an increase in the spontaneous mutation rate
[14]; TA 1537
  frame-shift mutations: does not induce base substitutions (S. typhimurium TA 1535, TA 100) or frame-shift mutations
[15]; [17]
  spontaneous mutation rate: did not lead to an increase in the spontaneous mutation rate
[15]; TA 100
  base substitutions: does not induce base substitutions
[16]; [17]
  spontaneous mutation rate: did not lead to an increase in the spontaneous mutation rate
[16]; TA 1538
  frame-shift mutations: does not induce base substitutions (S. typhimurium TA 1535, TA 100) or frame-shift mutations
